For orientation: DC50 means the midpoint of the concentration-degradation curve. Usually Dmax stands for the largest share of the target that was removed. A word on the IC50: it is the point on the concentration scale where inhibition reaches its midpoint. Low readings indicate greater potency, high ones weaker potency.

Read-outs that look alike come from different tables or passages of the source. Some results are limits rather than exact numbers.

In patent US20250215012A1, “IKZF2 DEGRADERS AND USES THEREOF” (REGENTS OF THE UNIVERSITY OF MICHIGAN, priority 2022, published 2025) one finds DC50, Dmax and IC50 data, which are given here for 13 compounds.

One assay concerns the target IKZF2 (Homo sapiens (Human), UniProt Q96SW2+Q9UKS7). The assay is described as follows: IKZF2 HiBit Assay (HEK293T Flp-in-HiBiT cells). It counts as cell-based. The settings on record: for DC50: read-out: IKZF2 HiBit degradation DC50; for Dmax: HEK-293T, read-out: IKZF2 HiBit degradation Dmax. As for the experimental part: The HiBiT protein tagging system was applied to modified HEK293T Flp-in-HiBiT cells (polyclone) via a CRISPR/Cas9—mediated insertion of the HiBiT peptide tag (Promega™) to the N-terminus of the IKZF2 gene locus (Neon™ transfection system). Test and reference compounds are diluted from 1 mM at 3 folds for 11 doses. 25 nL of diluted compound is transferred to assay plates (Corning3570) using ECHO550, the final DMSO concentration @0.1%. The cells are seeded in 3000/[…]/well to compound plates. It is then incubated for 6 hrs in TC incubator. The amount of Nano-Glo® HiBiT lytic reagent needed to perform the desired experiments is calculated. The Nano-Glo® HiBiT lytic reagent is brought to room temperature. The LgBiT protein is diluted to 1:100 and the Nano-Glo® HiBiT lytic substrate is diluted to 1:50 into an appropriate volume of room temperature Nano-Glo® HiBiT lytic buffer. […] of the detection reagent (or without LgBiT) is dispensed to corresponding well according to the layout. The plate is then shaked for 10 mins at room temperature. After briefly centrifuge, the plate is read on Envision. At the indicated timepoints, the Nano-Glo® HiBiT lytic detection system (Promega™) was utilized for detecting bioluminescence of the HiBiT tag in treated cells: abundance of the tag is proportionate to the level of luminescence. Following normalization to DMSO, dose-response curves were plotted (GraphPad Prism) to determine the concentration points at which 50% of HiBiT-Helios degradation was achieved by each compound. The extent of degradation (range of luminescence) from the highest to lowest concentration points was calculated to determine the Dmax.
(In general: With HiBiT, luminescence reflects the tagged protein that the partner subunit can reach.)

Assay [1] has as its target His tagged CRBN+DDB−DLS7+CXU4 (Homo sapiens (Human), UniProt Q96SW2). The assay is described as follows: IC50 Measurements for Binding to CRBN/DDBI (HTRF). The settings on record: Cy5-labeled Thalidomide probe, one hour incubation. A general note: TR-FRET usually uses a lanthanide donor and a delayed reading to cut background.
The next assay addresses IKZF1 (Homo sapiens (Human), UniProt Q13422+Q96SW2). The assay is described as follows: IKZF1 HiBit Assay (HEK293T Flp-in-HiBiT-IKZF1 stable cell line). The settings on record: for DC50: read-out: IKZF1 HiBit degradation DC50; for Dmax: HEK-293T, read-out: IKZF1 HiBit degradation Dmax. The class given is cell-based. The procedure:
The HiBiT protein tagging system was applied to modified Cells: modified HEK293T Flp-in-HiBiT-IKZF1 stable cell line (polyclone) via a CRISPR/Cas9—mediated insertion of the HiBiT peptide tag (Promega™) to the N-terminus of the IKZF2 gene locus (Neon™ transfection system).
Test compound from 10 mM and reference compound (CC-92480 from 50 mM and I-57 from 10 mM) are diluted at 3 folds for 11 doses. 25 nL of diluted compound is transferred to assay plates (Corning3571) using ECHO550, the final DMSO concentration @0.1%. The cells are seeded in 3000/[…]/well to compound plates. The plates are incubated for 6 hrs in TC incubator. The amount of Nano-Glo® HiBiT lytic reagent needed to perform the desired experiments is calculated. The Nano-Glo® HiBiT lytic reagent is brought to room temperature. The LgBiT protein is diluted to 1:100 and the Nano-Glo® HiBiT lytic substrate is brought to 1:50 into an appropriate volume of room temperature Nano-Glo® HiBiT lytic buffer. […] of the detection reagent (or without LgBiT) is dispensed to corresponding well according to the layout. The plate is shaked for 10 mins at room temperature. After briefly centrifuging, the plate is read on Envision. At the indicated timepoints, the Nano-Glo® HiBiT lytic detection system (Promega™) was utilized for detecting bioluminescence of the HiBiT tag in treated cells: abundance of the tag is proportionate to the level of luminescence. Following normalization to DMSO, dose-response curves were plotted (GraphPad Prism) to determine the concentration points at which 50% of HiBiT-Ikaros degradation was achieved by each compound. The extent of degradation (range of luminescence) from the highest to lowest concentration points was calculated to determine the Dm.

Where [2] appears, read: HEK293T Flp-in-HiBiT cells, 6 hrs.
[3] abbreviates: HEK293T Flp-in-HiBiT-IKZF1 cells, 6 hrs.

Sequence of His tagged CRBN+DDB−DLS7+CXU4 (Q96SW2 whole entry): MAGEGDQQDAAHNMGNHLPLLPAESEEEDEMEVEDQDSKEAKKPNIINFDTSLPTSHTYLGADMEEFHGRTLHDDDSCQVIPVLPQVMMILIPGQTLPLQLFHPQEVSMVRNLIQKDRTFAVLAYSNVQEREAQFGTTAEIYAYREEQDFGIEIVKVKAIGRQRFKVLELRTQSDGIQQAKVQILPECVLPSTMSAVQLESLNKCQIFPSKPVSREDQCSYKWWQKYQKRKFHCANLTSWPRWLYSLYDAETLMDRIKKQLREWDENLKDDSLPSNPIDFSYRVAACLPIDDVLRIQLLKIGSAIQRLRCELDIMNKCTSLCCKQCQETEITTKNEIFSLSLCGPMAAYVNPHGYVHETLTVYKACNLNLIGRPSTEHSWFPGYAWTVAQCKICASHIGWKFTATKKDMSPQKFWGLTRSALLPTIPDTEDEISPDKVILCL
Sequence of His tagged CRBN+DDB−DLS7+CXU4 (Q16531 whole entry partner): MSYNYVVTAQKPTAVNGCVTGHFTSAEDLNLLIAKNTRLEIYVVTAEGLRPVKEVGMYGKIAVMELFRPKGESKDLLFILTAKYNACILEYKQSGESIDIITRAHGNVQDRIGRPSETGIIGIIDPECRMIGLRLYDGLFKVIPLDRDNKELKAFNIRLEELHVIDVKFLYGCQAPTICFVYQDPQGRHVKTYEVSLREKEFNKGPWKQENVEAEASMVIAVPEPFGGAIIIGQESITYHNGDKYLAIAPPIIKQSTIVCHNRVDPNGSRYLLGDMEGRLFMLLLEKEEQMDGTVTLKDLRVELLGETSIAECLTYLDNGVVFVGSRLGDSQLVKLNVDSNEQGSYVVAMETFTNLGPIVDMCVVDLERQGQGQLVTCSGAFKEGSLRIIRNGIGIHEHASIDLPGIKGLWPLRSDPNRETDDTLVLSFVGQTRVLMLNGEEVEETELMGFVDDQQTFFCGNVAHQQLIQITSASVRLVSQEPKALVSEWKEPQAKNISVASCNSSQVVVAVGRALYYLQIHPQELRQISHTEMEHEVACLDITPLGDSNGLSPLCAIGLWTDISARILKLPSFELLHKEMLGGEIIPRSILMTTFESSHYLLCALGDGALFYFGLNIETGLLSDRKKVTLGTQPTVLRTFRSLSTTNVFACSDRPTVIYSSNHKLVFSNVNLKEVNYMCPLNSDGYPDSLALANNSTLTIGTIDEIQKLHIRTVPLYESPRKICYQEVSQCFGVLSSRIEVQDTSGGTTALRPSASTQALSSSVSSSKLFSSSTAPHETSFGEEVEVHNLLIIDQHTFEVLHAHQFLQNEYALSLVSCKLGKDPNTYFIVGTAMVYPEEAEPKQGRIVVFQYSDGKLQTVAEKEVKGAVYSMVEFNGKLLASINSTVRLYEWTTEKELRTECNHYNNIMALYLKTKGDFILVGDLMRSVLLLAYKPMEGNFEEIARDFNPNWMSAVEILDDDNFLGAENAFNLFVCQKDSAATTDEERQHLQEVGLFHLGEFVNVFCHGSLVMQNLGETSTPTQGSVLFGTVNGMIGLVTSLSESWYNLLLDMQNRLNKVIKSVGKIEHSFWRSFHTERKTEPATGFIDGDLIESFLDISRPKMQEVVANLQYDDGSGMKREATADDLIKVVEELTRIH
Sequence of IKZF1 (Q13422 whole entry): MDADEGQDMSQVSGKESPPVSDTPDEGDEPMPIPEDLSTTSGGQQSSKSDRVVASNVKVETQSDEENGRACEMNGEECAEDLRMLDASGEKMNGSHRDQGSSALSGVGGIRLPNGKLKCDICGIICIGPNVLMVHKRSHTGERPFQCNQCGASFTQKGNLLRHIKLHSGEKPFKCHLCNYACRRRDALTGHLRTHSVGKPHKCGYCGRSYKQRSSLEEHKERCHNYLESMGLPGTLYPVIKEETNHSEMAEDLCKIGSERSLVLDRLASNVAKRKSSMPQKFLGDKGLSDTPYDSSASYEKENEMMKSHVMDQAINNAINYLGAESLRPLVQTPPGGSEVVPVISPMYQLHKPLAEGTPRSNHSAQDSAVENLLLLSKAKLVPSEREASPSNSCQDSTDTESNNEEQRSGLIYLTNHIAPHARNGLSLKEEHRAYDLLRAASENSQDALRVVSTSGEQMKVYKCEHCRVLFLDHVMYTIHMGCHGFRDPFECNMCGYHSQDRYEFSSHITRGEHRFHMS
Sequence of IKZF1 (Q96SW2 whole entry): as the sequence (Q96SW2 whole entry) above
Sequence of IKZF1 (Q16531 whole entry partner): as the sequence (Q16531 whole entry partner) above
Sequence of IKZF2 (Q9UKS7 whole entry): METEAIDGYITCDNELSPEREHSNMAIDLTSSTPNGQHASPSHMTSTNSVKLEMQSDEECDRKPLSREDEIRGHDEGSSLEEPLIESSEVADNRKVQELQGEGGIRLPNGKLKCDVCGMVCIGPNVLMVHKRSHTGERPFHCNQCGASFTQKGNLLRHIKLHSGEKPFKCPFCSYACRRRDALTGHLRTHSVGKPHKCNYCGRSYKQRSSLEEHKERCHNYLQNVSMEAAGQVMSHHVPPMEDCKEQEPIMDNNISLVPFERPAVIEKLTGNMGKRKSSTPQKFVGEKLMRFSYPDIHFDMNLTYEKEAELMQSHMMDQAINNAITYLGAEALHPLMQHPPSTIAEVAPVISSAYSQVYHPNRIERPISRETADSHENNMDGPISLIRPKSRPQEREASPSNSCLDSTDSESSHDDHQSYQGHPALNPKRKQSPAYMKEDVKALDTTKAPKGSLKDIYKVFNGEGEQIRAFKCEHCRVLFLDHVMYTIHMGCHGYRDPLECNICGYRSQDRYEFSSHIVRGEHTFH
Sequence of IKZF2 (Q96SW2 whole entry): as the sequence (Q96SW2 whole entry) above
Sequence of IKZF2 (Q16531 whole entry partner): as the sequence (Q16531 whole entry partner) above

Take `[2H]C([2H])(c1ccc2cnn(C)c2c1)N1CCC2(CC1)COc1c2ccc2c1CN([C@H]1CCC(=O)NC1=O)C2=O` [Compound B8, (S)-3-(1′-((1-methyl-1H-indazol-6-yl)methyl-d2)-6-oxo-6,8-dihydro-2H,7H-spiro[furo[2,3-e]isoindole-3,4′-piperidin]-7-yl)piperidine-2,6-dione]: the results for the DC50 on IKZF2 (setting [2]) and at IKZF1 (setting [3]) were 1 to 10 nM and > 1000 nM, respectively. Further, the results for the greatest degradation seen (Dmax) on IKZF2 and at IKZF1 were 60 to 80% and < 20%, respectively. Also, the half-maximal inhibitory concentration (IC50) in assay [1] lay in the range of 100 to 500 nM.

With `[2H]C([2H])(c1cccc(-c2cnn(C([2H])([2H])[2H])c2)c1)N1CCC2(CC1)COc1c2ccc2c1CN([C@H]1CCC(=O)NC1=O)C2=O` [Compound B9, (S)-3-(1′-((3-(1-(methyl-d3)-1H-pyrazol-4-yl)phenyl)methyl-d2)-6-oxo-6,8-dihydro-2H,7H-spiro[furo[2,3-e]isoindole-3,4′-piperidin]-7-yl)piperidine-2,6-dione], the DC50 at IKZF2 (setting [2]) was 1 to 10 nM; at IKZF1 (setting [3]), > 1000 nM. The Dmax at IKZF2 (setting [2]) was 60 to 80%; at IKZF1 (setting [3]) it was < 20%. In addition, in assay [1], the IC50 is < 100 nM.

Regarding `[2H]C([2H])(c1cccc(-c2cnn(C(F)F)c2)c1)N1CCC2(CC1)COc1c2ccc2c1CN([C@H]1CCC(=O)NC1=O)C2=O` [Compound B10, (S)-3-(1′-((3-(1-(difluoromethyl)-1H-pyrazol-4-yl)phenyl)methyl-d2)-6-oxo-6,8-dihydro-2H,7H-spiro[furo[2,3-e]isoindole-3,4′-piperidin]-7-yl) piperidine-2,6-dione], the values for the 50% degradation concentration (DC50) on IKZF2 (setting [2]) and on IKZF1 (setting [3]) were 1 to 10 nM and > 1000 nM, respectively. Further, the Dmax at IKZF2 (setting [2]) was 60 to 80%; at IKZF1 (setting [3]) it was < 20%. Also, in assay [1], the IC50 lay within 100 to 500 nM.

On to `[2H]C([2H])(c1cccc(-c2cnn(C)c2)c1)N1CCC2(CC1)COc1c2ccc2c1CN([C@H]1CCC(=O)NC1=O)C2=O` [Compound B11, (S)-3-(1′-((3-(1-methyl-1H-pyrazol-4-yl)phenyl)methyl-d2)-6-oxo-6,8-dihydro-2H,7H-spiro[furo[2,3-e]isoindole-3,4′-piperidin]-7-yl)piperidine-2,6-dione], for which, on IKZF2 (setting [2]), the half-maximal degradation concentration (DC50) fell in the range of 1 to 10 nM and the Dmax was > 80%. Further, the IC50 in assay [1] is < 100 nM. Further, on IKZF1 (setting [3]), the half-maximal degradation concentration (DC50) was > 1000 nM and the Dmax is < 20%.

For `[2H]C([2H])([2H])n1cc(-c2cccc(CN3CCC4(CC3)COc3c4ccc4c3CN([C@H]3CCC(=O)NC3=O)C4=O)c2)cn1` [Compound B12, (S)-3-(1′-(3-(1-(methyl-d3)-1H-pyrazol-4-yl)benzyl)-6-oxo-6,8-dihydro-2H,7H-spiro[furo[2,3-e]isoindole-3,4′-piperidin]-7-yl)piperidine-2,6-dione], at IKZF2 (setting [2]), the half-maximal degradation concentration (DC50) is 1 to 10 nM and the Dmax is > 80%. In addition, in assay [1], the IC50 is 100 to 500 nM. In addition, on IKZF1 (setting [3]), the half-maximal degradation concentration (DC50) was > 1000 nM and the Dmax is < 20%.

Turning to `[2H]C1([2H])Oc2c(ccc3c2CN(C2CCC(=O)NC2=O)C3=O)C12CCN(Cc1cccc(-c3cnn(C)c3)c1)CC2` (centres unmarked) [Compound B13, 3-(1′-(3-(1-methyl-1H-pyrazol-4-yl)benzyl)-6-oxo-6,8-dihydro-2H,7H spiro[furo[2,3-e]isoindole-3,4′-piperidin]-7-yl-2,2-d2)piperidine-2,6-dione], at IKZF2 (setting [2]), the DC50 fell in the range of 1 to 10 nM and the Dmax was in the range of 60 to 80%. The IC50 in assay [1] lay in the range of 100 to 500 nM. Moreover, at IKZF1 (setting [3]), the DC50 is > 1000 nM and the Dmax was < 20%.

As to `Cn1cc(-c2cccc(CN3CCC4(CC3)COc3c4cc(F)c4c3CN([C@H]3CCC(=O)NC3=O)C4=O)c2)cn1` [Compound B16, (S)-3-(5-fluoro-1′-(3-(1-methyl-1H-pyrazol-4-yl)benzyl)-6-oxo-6,8-dihydro-2H,7H-spiro[furo[2,3-e]isoindole-3,4′-piperidin]-7-yl)piperidine-2,6-dione], at IKZF2 (setting [2]), the DC50 lay within 1 to 10 nM and the Dmax lay within 40 to 60%. In addition, the half-maximal inhibitory concentration (IC50) in assay [1] fell in the range of 100 to 500 nM. Besides, at IKZF1 (setting [3]), the DC50 was > 1000 nM and the Dmax was < 20%.

On to `O=C1CC[C@H](N2Cc3c4c(cc(Cl)c3C2=O)C2(CCN(Cc3ccccc3)CC2)CO4)C(=O)N1` [Compound B17, (S)-3-(1′-benzyl-5-chloro-6-oxo-6,8-dihydro-2H,7H-spiro[furo[2,3-e]isoindole-3,4′-piperidin]-7-yl)piperidine-2,6-dione], for which, on IKZF2 (setting [2]), the 50% degradation concentration (DC50) is > 1000 nM and the greatest degradation seen (Dmax) is < 20%. This compound came in with an IC50 in assay [1] of 500 to 1000 nM. Besides, on IKZF1 (setting [3]), the 50% degradation concentration (DC50) is > 1000 nM and the Dmax was < 20%.

`O=C1CC[C@H](N2Cc3c4c(cc(Cl)c3C2=O)C2(CCN(Cc3cccc5cn[nH]c35)CC2)CO4)C(=O)N1` [Compound B18, (S)-3-(1′-((1H-indazol-7-yl)methyl)-5-chloro-6-oxo-6,8-dihydro-2H,7H-spiro[furo[2,3-e]isoindole-3,4′-piperidin]-7-yl)piperidine-2,6-dione]: at IKZF2 (setting [2]), the DC50 is > 1000 nM and the Dmax is < 20%. This compound also registered an IC50 in assay [1] of 100 to 500 nM. Moreover, on IKZF1 (setting [3]), the DC50 is > 1000 nM and the Dmax was < 20%.

Regarding `Cn1cc(-c2cccc(CN3CCC4(CC3)COc3c4cc(C#N)c4c3CN([C@H]3CCC(=O)NC3=O)C4=O)c2)cn1` [Compound B19, (S)-7-(2,6-dioxopiperidin-3-yl)-1′-(3-(1-methyl-1H-pyrazol-4-yl)benzyl)-6-oxo-7,8-dihydro-2H,6H-spiro[furo[2,3-e]isoindole-3,4′-piperidine]-5-carbonitrile], on IKZF2 (setting [2]), the DC50 is 100 to 1000 nM and the greatest degradation seen (Dmax) is 40 to 60%. The same compound came in with an IC50 in assay [1] of 1000 to 5000 nM. In addition, on IKZF1 (setting [3]), the DC50 is > 1000 nM and the Dmax was < 20%.

Regarding `Cc1cc2c(c3c1C(=O)N([C@H]1CCC(=O)NC1=O)C3)OCC21CCN(Cc2cccc(-c3cnn(C)c3)c2)CC1` [Compound B20, (S)-3-(5-methyl-1′-(3-(1-methyl-1H-pyrazol-4-yl)benzyl)-6-oxo-6,8-dihydro-2H,7H-spiro[furo[2,3-e]isoindole-3,4′-piperidin]-7-yl)piperidine-2,6-dione], at IKZF2 (setting [2]), the DC50 is > 1000 nM and the Dmax was 20 to 40%. In assay [1], this compound yielded an IC50 of 500 to 1000 nM. On IKZF1 (setting [3]), the DC50 is > 1000 nM and the greatest degradation seen (Dmax) was < 20%.

Consider `CC1CN(Cc2cccc(-c3cnn(C)c3)c2)CCC12COc1c2ccc2c1CN(C1CCC(=O)NC1=O)C2=O` (centres unmarked) [Compound B21, 3-(3′-methyl-1′-(3-(1-methyl-1H-pyrazol-4-yl)benzyl)-6-oxo-6,8-dihydro-2H,7H-spiro[furo[2,3-e]isoindole-3,4′-piperidin]-7-yl)piperidine-2,6-dione], for which, at IKZF2 (setting [2]), the DC50 was 1 to 10 nM and the Dmax is 20 to 40%. The same compound gave a 50% inhibitory concentration (IC50) in assay [1] of 100 to 500 nM. Besides, on IKZF1 (setting [3]), the half-maximal degradation concentration (DC50) was > 1000 nM and the maximal degradation (Dmax) is < 20%.

As for `O=C1CCC(N2Cc3c(ccc4c3OCC43CCN(Cc4ccccc4)CC3O)C2=O)C(=O)N1` (centres unmarked) [Compound B22, 3-(1′-benzyl-3′-hydroxy-6-oxo-6,8-dihydro-2H,7H-spiro[furo[2,3-e]isoindole-3,4′-piperidin]-7-yl)piperidine-2,6-dione], the results for the DC50 at IKZF2 (setting [2]) and on IKZF1 (setting [3]) were 10 to 100 nM and > 1000 nM, respectively. For the same compound, the results for the Dmax at IKZF2 (setting [2]) and on IKZF1 (setting [3]) were 20 to 40% and < 20%, respectively. The same compound returned an IC50 in assay [1] of 100 to 500 nM.
